Source: patent US20170240556A1, “BIFLUORODIOXALANE-AMINO-BENZIMIDAZOLE KINASE INHIBITORS FOR THE TREATMENT OF CANCER, AUTOIMMUNEINFLAMMATION AND CNS DISORDERS” (4SC DISCOVERY GMBH, priority 2012, published 2017)

Tests used:
[1] = tested on: Hedgehog signaling pathway; test: Hedgehog reporter assay (Gli Reporter - NIH3T3 Cell Line); type: cell-based; settings: Mus musculus; Gli reporter NIH3T3 cells, murine SHH stimulation, 24 h; read-out: HH Assay
Method: In order to investigate the potency of test compounds to inhibit the Hedgehog signaling pathway, a Gli-Reporter assay was performed.
The “Gli Reporter—NIH3T3 Cell Line” contains the firefly luciferase gene under the control of Gli responsive elements stably integrated into murine NIH3T3 cells (cells purchased from Amsbio). The luciferase expression correlates with activation of the hedgehog signaling pathway. This cell line is validated for its response to stimulation with murine Sonic Hedgehog and to treatment with inhibitors of the hedgehog signaling pathway. A multiplexed viability assay was used to discriminate inhibition on the pathway activity from cell toxicity.
Growth Medium: DMEM, 10% Calf Serum, 1% Penicillin/Streptomycin 500 μg/ml Geneticin (G418 Stock 50 mg/ml).
25.000 cells per well were seeded into a white 96 well plate in 100 μl growth medium and incubated over night at 37° C. and 5% CO2. After removing the supernatant the test compounds and controls (known GLI inhibitor, e.g. GANT-61) were added in different concentrations in a final volume of 45 μl and incubated for 1 h at 37° C. and 5% CO2. For the stimulation of the Hedgehog pathway 5 μl of 10 μg/ml concentrated murine sonic hedgehog (SHH) was added to the cells. A final concentration of 1 μg/ml mSHH and 0.1% DMSO was reached per well. After incubation for 24 h at 37° C. the cells were investigated for viability and reporter activity.
Viability: For the determination of the viability of the treated cells the CellTiter-Fluor Kit from Promega was used. Essentially, only proteases of viable cells are able to cleave the cell-permeant substrate Gly-Phe-AFCoumarin (GF-AFC). By this cleavage the fluorescent AFC is set free and can be detected in a fluorescence reader. For this assay 10 μl of GF-AFC substrate (CellTiter-Fluor, Promega #G6082) was diluted in 2 ml assay buffer from the CellTiter-Fluor Kit and 10 μl of this dilution was added per well to the cells and incubated for 30 min at 37° C. The fluorescence was measured with excitation at 380-400 nm and emission at 505 nm.
Reporter activity: The firefly luciferase reporter activity was detected with the ONE-Glo™ Luciferase Assay System from Promega. For this assay 50 μl ONE-Glo luciferase reagent (Promega #E6120, contains cell lysis buffer and luciferin) was added to each well and incubated at room temperature for 5 min. Luminescence was detected in a plate reader and served as a degree for reporter activity.

[2] = biological target: Casein kinase 1 epsilon (CSKN1E) (Homo sapiens, UniProt P49674); test: Casein kinase assay, CK1 epsilon; type: biochemical; settings: recombinant CSKN1E 30 nM, ATP 10 μM
Casein kinase 1 epsilon (CSKN1E), sequence (P49674 whole entry): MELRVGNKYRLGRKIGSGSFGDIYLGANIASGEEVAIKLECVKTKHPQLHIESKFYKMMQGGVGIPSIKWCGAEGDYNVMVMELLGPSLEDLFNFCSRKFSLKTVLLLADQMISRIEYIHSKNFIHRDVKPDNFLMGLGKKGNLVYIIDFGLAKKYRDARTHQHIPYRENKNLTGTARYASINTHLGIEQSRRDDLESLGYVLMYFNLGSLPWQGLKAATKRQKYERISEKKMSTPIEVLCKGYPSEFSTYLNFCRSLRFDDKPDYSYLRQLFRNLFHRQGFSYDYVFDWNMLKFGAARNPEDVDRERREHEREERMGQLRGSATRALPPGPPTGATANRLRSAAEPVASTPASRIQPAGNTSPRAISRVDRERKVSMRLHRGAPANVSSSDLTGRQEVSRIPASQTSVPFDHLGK

[3] = biological target: Casein kinase 1 delta (CSKN1D) (Homo sapiens, UniProt P48730); test: Casein kinase assay, CK1 delta; type: biochemical; settings: recombinant CSKN1D 5 nM, ATP 10 μM
Casein kinase 1 delta (CSKN1D), sequence (P48730 whole entry): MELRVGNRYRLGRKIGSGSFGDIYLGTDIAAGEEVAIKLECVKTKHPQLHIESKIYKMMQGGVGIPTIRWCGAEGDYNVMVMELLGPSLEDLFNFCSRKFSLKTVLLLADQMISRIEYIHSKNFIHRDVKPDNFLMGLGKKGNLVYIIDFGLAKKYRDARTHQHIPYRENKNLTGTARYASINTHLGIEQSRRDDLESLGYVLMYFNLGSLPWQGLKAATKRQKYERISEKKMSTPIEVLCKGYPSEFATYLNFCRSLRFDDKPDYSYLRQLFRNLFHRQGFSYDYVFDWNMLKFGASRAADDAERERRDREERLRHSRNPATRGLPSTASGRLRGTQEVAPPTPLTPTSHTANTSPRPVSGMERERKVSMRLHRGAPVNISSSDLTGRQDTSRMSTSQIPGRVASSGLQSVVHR

Row | SMILES | IC50 [1] | IC50 [2] | IC50 [3]
1 | O=C(Nc1nc2cc3c(cc2[nH]1)OC(F)(F)O3)c1csc(-c2ccc3c(c2)CCO3)n1 [Compound 3, N-(2,2-difluoro-5H-[1,3]dioxolo[4′,5′:4,5]benzo[1,2-d]imidazol-6-yl)-2-(2,3-dihydrobenzofuran-5-yl)thiazole-4-carboxamide] | ≤ 500 nM | 200 to 1000 nM | < 200 nM
2 | Nc1nccnc1C(=O)Nc1nc2cc3c(cc2[nH]1)OC(F)(F)O3 [Compound 7, 3-amino-N-(2,2-difluoro-5H-[1,3]dioxolo[4′,5′:4,5]benzo[1,2-d]imidazol-6-yl)pyrazine-2-carboxamide] | 1000 to 15000 nM | > 1000 nM | > 1000 nM
3 | O=C(Nc1nc2cc3c(cc2[nH]1)OC(F)(F)O3)c1cnccn1 [Compound 27, N-(2,2-difluoro-5H-[1,3]dioxolo[4′,5′:4,5]benzo[1,2-d]imidazol-6-yl)pyrazine-2-carboxamide] | 1000 to 15000 nM | > 1000 nM | > 1000 nM
4 | CN(C)c1cccc(C(=O)Nc2nc3cc4c(cc3[nH]2)OC(F)(F)O4)c1 [Compound 102, N-(2,2-difluoro-5H-[1,3]dioxolo[4′,5′:4,5]benzo[1,2-d]imidazol-6-yl)-3-(dimethylamino)benzamide] | 500 to 1000 nM |  | < 200 nM
5 | O=C(Nc1nc2cc3c(cc2[nH]1)OC(F)(F)O3)c1cccc(N2CCCC2)c1 [Compound 122, N-(2,2-difluoro-5H-[1,3]dioxolo[4′,5′:4,5]benzo[1,2-d]imidazol-6-yl)-3-(pyrrolidin-1-yl)benzamide] | ≤ 500 nM |  | < 200 nM
6 | CN(C)c1cc(C(=O)Nc2nc3cc4c(cc3[nH]2)OC(F)(F)O4)ccn1 [Compound 125, N-(2,2-difluoro-5H-[1,3]dioxolo[4′,5′:4,5]benzo[1,2-d]imidazol-6-yl)-2-(dimethylamino)isonicotinamide] | 1000 to 15000 nM |  | < 200 nM
7 | Cc1cc(C)n(-c2cccc(C(=O)Nc3nc4cc5c(cc4[nH]3)OC(F)(F)O5)c2)n1 [Compound 130, N-(2,2-difluoro-5H-[1,3]dioxolo[4′,5′:4,5]benzo[1,2-d]imidazol-6-yl)-3-(3,5-dimethyl-1H-pyrazol-1-yl)benzamide] | ≤ 500 nM | < 200 nM | < 200 nM
8 | O=C(Nc1nc2cc3c(cc2[nH]1)OC(F)(F)O3)c1cc(-c2cccs2)on1 [Compound 138, N-(2,2-difluoro-5H-[1,3]dioxolo[4′,5′:4,5]benzo[1,2-d]imidazol-6-yl)-5-(thiophen-2-yl)isoxazole-3-carboxamide] | 500 to 1000 nM | < 200 nM | < 200 nM
9 | O=C(Nc1nc2cc3c(cc2[nH]1)OC(F)(F)O3)c1ccc(-n2cccn2)cc1 [Compound 142, N-(2,2-difluoro-5H-[1,3]dioxolo[4′,5′:4,5]benzo[1,2-d]imidazol-6-yl)-4-(1H-pyrazol-1-yl)benzamide] |  | > 1000 nM | < 200 nM
10 | O=C(Nc1nc2cc3c(cc2[nH]1)OC(F)(F)O3)c1cc(-c2ccco2)on1 [Compound 143, N-(2,2-difluoro-5H-[1,3]dioxolo[4′,5′:4,5]benzo[1,2-d]imidazol-6-yl)-5-(furan-2-yl)isoxazole-3-carboxamide] |  | 200 to 1000 nM | 200 to 1000 nM
11 | Cc1nn(C)cc1-c1cc(C(=O)Nc2nc3cc4c(cc3[nH]2)OC(F)(F)O4)no1 [Compound 144, N-(2,2-difluoro-5H-[1,3]dioxolo[4′,5′:4,5]benzo[1,2-d]imidazol-6-yl)-5-(1,3-dimethyl-1H-pyrazol-4-yl)isoxazole-3-carboxamide] |  | > 1000 nM | < 200 nM
12 | O=C(Nc1nc2cc3c(cc2[nH]1)OC(F)(F)O3)c1cccc(-c2noc(C3CC3)n2)c1 [Compound 147, 3-(5-cyclopropyl-1,2,4-oxadiazol-3-yl)-N-(2,2-difluoro-5H-[1,3]dioxolo[4′,5′:4,5]benzo[1,2-d]imidazol-6-yl)-benzamide] | 500 to 1000 nM | < 200 nM | < 200 nM

Second part, the compound after the results:

Row | IC50 [1] | IC50 [2] | IC50 [3] | SMILES
13 | 500 to 1000 nM | < 200 nM | < 200 nM | COc1cccc(CC(=O)Nc2nc3cc4c(cc3[nH]2)OC(F)(F)O4)c1 [Compound 3B, N-(2,2-difluoro-5H-[1,3]dioxolo[4′,5′:4,5]benzo[1,2-d]imidazol-6-yl)-2-(3-methoxyphenyl)acetamide]
14 | 1000 to 15000 nM |  | < 200 nM | O=C(Nc1nc2cc3c(cc2[nH]1)OC(F)(F)O3)c1cccc(-c2cc[nH]n2)c1 [Compound 5B, N-(2,2-difluoro-5H-[1,3]dioxolo[4′,5′:4,5]benzo[1,2-d]imidazol-6-yl)-3-(1H-pyrazol-3-yl)benzamide]
15 | 500 to 1000 nM | < 200 nM | < 200 nM | O=C(Nc1nc2cc3c(cc2[nH]1)OC(F)(F)O3)c1csc(-c2ccco2)n1 [Compound 6B, N-(2,2-difluoro-5H-[1,3]dioxolo[4′,5′:4,5]benzo[1,2-d]imidazol-6-yl)-2-(furan-2-yl)thiazole-4-carboxamide]
16 | 1000 to 15000 nM |  | < 200 nM | CN(C)c1cncc(C(=O)Nc2nc3cc4c(cc3[nH]2)OC(F)(F)O4)c1 [Compound 7B, N-(2,2-difluoro-5H-[1,3]dioxolo[4′,5′:4,5]benzo[1,2-d]imidazol-6-yl)-5-(dimethylamino)nicotinamide]
17 | 1000 to 15000 nM |  | < 200 nM | O=C(Nc1nc2cc3c(cc2[nH]1)OC(F)(F)O3)c1csc(-c2cccs2)n1 [Compound 11B, N-(2,2-difluoro-5H-[1,3]dioxolo[4′,5′:4,5]benzo[1,2-d]imidazol-6-yl)-2-(thiophen-2-yl)thiazole-4-carboxamide]
18 | 1000 to 15000 nM |  | < 200 nM | O=C(Nc1nc2cc3c(cc2[nH]1)OC(F)(F)O3)c1csc(-c2ccoc2)n1 [Compound 16B, N-(2,2-difluoro-5H-[1,3]dioxolo[4′,5′:4,5]benzo[1,2-d]imidazol-6-yl)-2-(furan-3-yl)thiazole-4-carboxamide]
